Results on six molecules are retold here after patent publication US8211893B2, “Protein kinase C zeta inhibition to treat diabetic retinopathy” (The Penn State Research Foundation, priority 2006, dated 2012).

The subject of series [1] is bovine retinal endothelial cells (BREC). In words: In vitro permeability assay, VEGF stimulated 70 kDa RITC-dextran flux across BREC monolayer on transwell filters. To be noted: for effect on VEGF stimulated endothelial permeability to 70 kDa RITC-dextran: peptide inhibitor 50 nM. In kind it is cell-based. On the procedure: Endothelial cells are grown to confluence on transwell filters. After the cells have grown to confluence, an additional 2 to 4 days is necessary to allow formation of a tight barrier. This may vary depending on the cell preparation.
Solute flux is measured by applying 10 micromolar or 20 micromolar RITC-dextran or FITC-BSA to the apical chamber of inserts with a confluent endothelial cell monolayer. The specific experiment may dictate when to perturb the system with, for example, a PKC inhibitor, relative to the time of measuring flux. Remember to consider the time for the perturbation to effect transport rates, for example, time for synthesis and assembly or disassembly of the junctional complex.
One half-hour after addition of fluorescent solute, 50 microliter samples are taken from the basolateral chamber. This is continued on the half-hour for up to four hours. The samples are placed into the 96 well black/clear bottom plate. A sample is taken from the apical chamber at the last time point and also placed in the 96 well plate. […] Fluorescence of each aliquot is quantified on a fluorescence plate reader. We use a FluorImager 595. A blank sample with media only but no fluorescent marker should be used for background subtraction. The rate of diffusive flux (Po) is calculated by the following formula at each time point: Po=[(FA/Δt)VA]/(FLA) where Po=diffusive flux (cm/s); FA=basolateral fluorescence; FL=apical fluorescence; Δt=change in time; A=surface area of the filter (cm^2); VA=volume of the basolateral chamber (cm^3). Note that unless the volume removed from the basolateral chamber is replaced, the volume in the basolateral chamber changes for each time point calculated. The data may be reduced as a rate over the total time course of the experiment if the change remains linear. This is done by plotting the change in fluorescence accumulated in the basolateral chamber corrected for fluorescence in the apical chamber, volume and area versus time and then determining the slope of the straight line or rate of diffusive flux, Po.
The fluorescence obtained from each time point is normalized to the fluorescence in the apical chamber. Next this ratio is corrected for the volume in the bottom chamber and this corrected ratio is plotted verses time to determine the rate of fluorescent molecule accumulation by obtaining the slope. Finally, this slope is converted from minutes to seconds and divided by the area of the filter yielding the diffusive flux in cm/s.
Bovine retinal endothelial cells (BREC) are grown to confluence on transwell filters (Costar) and treated with hydrocortisone (100 nM) to induce barrier properties. PKC zeta peptide inhibitor (50 nM, Calbiochem) is applied to the cells 30 min before addition of fluorescent-labeled tracer and VEGF (50 ng/mL, R&D Systems) is applied to the cells for 15 min before addition of tracer. RITC-labeled 70 kDa dextran (Sigma) is used as a tracer for cell permeability measures and is applied to the apical chamber at 10 micromolar. Samples are drawn from the basolateral chamber over a 4 h time course and the rate of tracer accumulation is used to determine monolayer permeability, Po, in cm/s. FIG. 2 illustrates the results of the use the myristoylated peptide inhibitor of PKC zeta on endothelial permeability to 70 kDa RITC-dextran.
Bovine retinal endothelial cells (BREC) are grown to confluence on transwell filters (Costar) and treated with hydrocortisone (100 nM) to induce barrier properties. PKC zeta peptide inhibitor (PKCζ 1) of SEQ ID No. 1 (Calbiochem) is applied to the cells at concentrations of 6.25 nM, 12.5 nM, 25 nM, and 50 nM, 30 min before addition of fluorescent-labeled tracer and VEGF (50 ng/mL, R&D Systems) is applied to the cells for 15 min before addition of tracer. […]

The target of series [2] is T1, PKC-zeta (Homo sapiens, UniProt Q05513).
T1 sequence (Q05513 1-592): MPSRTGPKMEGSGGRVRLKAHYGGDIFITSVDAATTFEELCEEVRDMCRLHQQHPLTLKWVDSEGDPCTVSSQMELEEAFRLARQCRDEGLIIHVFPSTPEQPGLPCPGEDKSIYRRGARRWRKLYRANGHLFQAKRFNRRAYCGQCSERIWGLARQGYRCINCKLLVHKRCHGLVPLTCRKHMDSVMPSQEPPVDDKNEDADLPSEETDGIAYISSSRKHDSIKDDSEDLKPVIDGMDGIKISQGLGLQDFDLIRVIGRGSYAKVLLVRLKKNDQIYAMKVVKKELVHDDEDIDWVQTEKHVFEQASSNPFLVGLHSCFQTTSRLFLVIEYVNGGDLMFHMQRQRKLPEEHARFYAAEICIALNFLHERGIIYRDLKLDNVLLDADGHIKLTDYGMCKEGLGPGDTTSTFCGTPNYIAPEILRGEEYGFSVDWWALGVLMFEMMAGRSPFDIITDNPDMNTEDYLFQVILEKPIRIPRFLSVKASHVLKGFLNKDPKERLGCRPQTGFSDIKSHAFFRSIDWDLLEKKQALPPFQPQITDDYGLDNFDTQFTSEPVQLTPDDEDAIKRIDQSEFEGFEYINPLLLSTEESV
In words: In vitro screen for PKC zeta inhibitors, Kinase-Glo Luminescent Kinase assay with CREBtide substrate. Also noted: purchased Biomol International SE-413. The format is biochemical. To be noted: tested at 100 micromolar; relative to compound of formula (I). The procedure:
A screen for PKCzeta inhibitors was developed using recombinant human enzyme from Biomol International (SE-413) and CREBtide (Biomol P195) as the substrate. PKCzeta is incubated for 8 min at 30° C. in 50 microliters of buffer containing 5 mM MgCl2, 100 micromolar Na3VO4, 100 micromolar NaP2O7, 1 mM NaF. 100 micromolar PMSF, 50 mM Tris (pH 7.5), 4 micrograms of phosphatidylserine, 50 micromolar ATP, and a substrate peptide, KRREILSRRPSYR. The substrate peptide may be chemically synthesized, recombinantly produced or obtained commercially by the trade name CREBtide. Approximately 9,000 compounds from the DIVERSet collection of the ChemBridge Corporation (San Diego, Calif.) were tested at a final concentration of 100 micromolar, using the Kinase-Glo™ Luminescent Kinase assay (Promega) to measure residual ATP levels after the kinase reaction as described by the manufacturer. Compounds are identified as having inhibitory activity when they reduce PCK zeta activity by at least 50% when tested at a concentration of 100 micromolar.

The target in series [3] is T1, PKC-zeta. The series is described as follows: IC50 determination for PKC-zeta. The format is biochemical. To be noted: read-out: half-maximal inhibitory concentration, IC50, for PKC-zeta. The procedure:
Methods described in this example are used to determine the half-maximal inhibitory concentration, IC50, of a particular PKC zeta inhibitor. A PKC zeta inhibitor is incubated with […] in vitro by addition of the inhibitor to cultured BREC cells, followed by the addition of a labeled permeability marker, 70 kDa RITC dextran.

Another series concerns BREC cultures. The series is described as follows: Invitrogen Live/Dead assay, calcein AM and ethidium homodimer-1. The format is cell-based. To be noted: 10 micromolar, 24 h, confluent BREC, alone or with VEGF; listed as PKC-zeta I1. On the procedure: Cell viability is measured using the Invitrogen Live/Dead assay according to manufacturer's instructions. Confluent BREC cultures are treated with 10 micromolar PKC-zeta I1 for 24 h. Cell viability is measured with calcein AM incorporation and cell death is measured by ethidium homodimer-1 staining followed by fluorescence quantification on a Molecular Devices Gemini fluorescence plate reader.

The test system of series [4] is retinal albumin flux after VEGF treatment. In words: In vivo VEGF induced retinal permeability, Evan's blue bound albumin flux. To be noted: rat, intraocular injection with VEGF 50 ng, 5 h. An excerpt: Vascular permeability is quantified in this in vivo model by measuring albumin leakage form blood vessels into the retina. Evans blue is an acid dye of the diazo group that noncovalently binds to albumin in the blood, allowing the breakdown in blood-retinal barrier to be detected when increased vessel leakage is extravasated into the interstitial space.
Rats are used in this example and each animal is weighed and the body weight (BW) recorded for anaesthetic and dye injections. Each animal is anesthetized by intramuscular injection of 1 microliter/g BW a Ketamine/Xylazine mixture equal to […]/6.67 mg Xylazine/kg BW. […]
Both eyes are enucleated and bisected at the equator to harvest the retinas which are optionally dried thoroughly in a Speed-Vac for 5 hours. The weight of the retinas is measured with an analytical balance. […]
The obtained plasma samples are diluted 1:10000 with formamide. […] The absorbance in each well is measured at 620 and 740 nm with a plate reader. The background-subtracted absorbance (A620-A740) is calculated for each sample and the dye concentration is determined using the standard curve. […]
The PKC-zeta I1 is effective at reducing retinal albumin flux in vivo after VEGF treatment. […] Flux to albumin is measured using the albumin binding dye Evan's blue. […] Evan's blue is eluted from the retinas in formamide and read spectrophotometrically. […]

Entries after “also recorded” stand apart in the source; their conditions may differ. No end group written: not given here. *: point of attachment. Myristoyl = CCCCCCCCCCCCCC(=O)*

Consider `CN(C)CCCn1cc(C2=C(c3c[nH]c4ccccc34)C(=O)NC2=O)c2ccccc21` [bisindoylmaleimide I], for which the “effect on VEGF stimulated dextran permeability” value in series [1] (bisindoylmaleimide I 5 micromolar, 30 min before tracer, VEGF 50 ng/mL, BREC) is reported as “partly reduces VEGF stimulated permeability”.

Turning to `CC(C)OC(=O)c1c(-c2ccc(Cl)c(Cl)c2)csc1N` [formula (IV)], the “inhibits PKC zeta with x-fold greater efficacy than the compound of formula (I)” value against PKC-zeta [2] came to 1.8 fold.

For the molecule `CCOC(=O)c1c(NC(C)=O)sc(C)c1-c1ccc(OC)cc1` [formula (V)], the “inhibits PKC zeta with x-fold greater efficacy than the compound of formula (I)” value against PKC-zeta [2] came to 2.6 fold.

For “myr-SIYRRGARRWRKL (Myristoyl-SIYRRGARRWRKL)”, the “effect on VEGF stimulated endothelial permeability to 70 kDa RITC-dextran” value in series [1] (30 min before tracer, VEGF 50 ng/mL, BREC) was “reduces and prevents a VEGF stimulated increase in permeability”; in series [1] (30 min before tracer, VEGF 50 ng/mL, BREC, listed as myristoylated peptide inhibitor of PKC zeta), “reduced or prevented permeability”. In addition, the “dose dependence of effect on VEGF stimulated endothelial permeability” value in series [1] (peptide inhibitor 6.25, 12.5, 25 and 50 nM, VEGF 50 ng/mL, BREC) is “reduces VEGF stimulated endothelial permeability in a dose dependent manner”.

For `CCOC(=O)c1c(NC(=S)N2CCN(S(C)(=O)=O)CC2)sc(C)c1-c1ccccc1` [formula (III)], the “inhibits PKC zeta with x-fold greater efficacy than the compound of formula (I)” value against PKC-zeta [2] is 1.2 fold.

With `CCOC(=O)c1c(NC(C)=O)sc(/C(C)=N/O)c1-c1ccccc1` [formula (I), ethyl (5E)-2-acetylimino-5-[1-(hydroxyamino)ethylidene]-4-phenyl-thiophene-3-carboxylate], the IC50 on PKC-zeta [3] amounted to 10 µM. Further, in the series with BREC cultures, the “cell death (ethidium homodimer-1 staining)” value was “no increase in cell death; also recorded: does not alter cell viability or increase cell death” and the “cell viability (calcein AM incorporation)” value is “no loss of cell viability; also recorded: does not alter cell viability”. Also, the “effect on VEGF induced endothelial permeability in vitro” value in series [1] (PKC-zeta I1 at 10 and 25 micromolar, 30 min before tracer, VEGF 50 ng/mL) is listed as “completely blocks VEGF induced endothelial permeability; also recorded: effectively blocks VEGF induced permeability in vitro”. In addition, in series [1] (PKC-zeta I1 at 10 and 25 micromolar, no VEGF), the “effect on baseline endothelial permeability” value is on record as “reduces baseline permeability”. In series [4] (about 10 micromolar final concentration in the eye), the “reduction of Evan's blue bound albumin flux” value was found to be 50%. In addition, the “effect on VEGF induced permeability in vivo” value in series [4] (about 10 micromolar in the eye) is on record as “blocks VEGF induced permeability in vivo”.
